Experiments:
[1] = molecular target: T1, PLK1 (Homo sapiens, UniProt P53350); experiment: Luciferase assay for PLK1 in HeLa LgBit (Plk1-HiBit KI) cell line; type: cell-based; settings: 300 nM compound, luminescence after 9 hours
T1 construct: endogenous in cells; host or cells: HeLa cells stably expressing LgBit, with CRISPR/Cas9 knock-in of HiBit at the endogenous PLK1 locus
Experimental: 2. Luciferase Assay for PLK1
(1) Preparation and Culture of HeLa LgBit (Plk1-HiBit KI) Cell Line
A HeLa cell line in which the LgBit vector was transfected and expressed stably was prepared. Then, after constructing gRNA and donor to express the HiBit amino acid sequence behind the C-terminal of the Plk1 gene, which was inherent in the cell, it was inserted into the cell together with a vector capable of expressing CRISPR/Cas9. Only the cells in which the insertion was completed and knock-in had progressed were selected, sub-cultured and used.
(2) Treatment of Compounds of the Present Invention and Method of Luciferase Assay
In the case of HeLa LgBit (Plk1-HiBit KI), the compounds were treated after being released after thymidine block, and the process was as follows. Thymidine (Sigma-Aldrich Cat. No. T9250-5G) was completely dissolved in DW and used in the experiment. For thymidine block, the products were treated with 2 mM of thymidine and then incubated for 24 hours. For release and chemical treatment, the medium was suctioned and washed with 1×PBS. TrypLE™ was added and incubated in 37° C. CO2 incubator for 5 min. Cells neutralized by adding complete media were counted through a counter. For each well of a 96-well culture plate (SPL), 3.3×10^4 cells and a total medium volume of 150 μL were seeded and incubated in a CO2 incubator.
Each cell line was incubated in a CO2 incubator for 18 hours, and Endurazine was added to each well to make up 4% of the total volume. After adding the compound of the present invention in a 96-well white plate (SPL) to a concentration of 300 nM, the wavelength of the plate reader (BMG Labtech, CLARIOstar Plus) was set to […], and then the luminescence was tracked in real time.
The results are shown in Table 2 below and FIGS. 1 and 2.
In Table 2, Activity represents the ratio of the luminescence value of each Exemplary Compound treatment group to DMSO treatment group (+++: <0.3, ++ <0.6, + <0.7).

[2] = tested on: H526 cell line; experiment: Cell viability assay for H526 cell line; type: cell-based; settings: Homo sapiens, NCI-H526, 120 h; H526 cells, 5 days, EZ-Cytox, 0.46-3000 nM
Experimental: 3. Cell Viability Assay for H526 Cell Line
(1) Culture of NCI-H526 Cell Line
(2) Treatment of Compounds of the Present Invention and Method of Cell Viability Assay
After treating the compound to each well to make the total volume of 200 μL, it was cultured in a CO2 incubator (Thermo Fisher Science, Cat. No. 4111) for 5 days.
The absorbance of the completely cultured sample was measured by setting the wavelength of a plate reader (BMG Labtech, CLARIOstar Plus) to […], and was measured after shaking for 3 minutes in a plate reader before measurement.
In Table 3, Activity represents IC50 value of each Exemplary Compound treatment group to H526 cell line (A: <30 nM, B: <50 nM, C: <100 nM, D: <200 nM, E: <400 nM).

T1 sequence (P53350 whole entry): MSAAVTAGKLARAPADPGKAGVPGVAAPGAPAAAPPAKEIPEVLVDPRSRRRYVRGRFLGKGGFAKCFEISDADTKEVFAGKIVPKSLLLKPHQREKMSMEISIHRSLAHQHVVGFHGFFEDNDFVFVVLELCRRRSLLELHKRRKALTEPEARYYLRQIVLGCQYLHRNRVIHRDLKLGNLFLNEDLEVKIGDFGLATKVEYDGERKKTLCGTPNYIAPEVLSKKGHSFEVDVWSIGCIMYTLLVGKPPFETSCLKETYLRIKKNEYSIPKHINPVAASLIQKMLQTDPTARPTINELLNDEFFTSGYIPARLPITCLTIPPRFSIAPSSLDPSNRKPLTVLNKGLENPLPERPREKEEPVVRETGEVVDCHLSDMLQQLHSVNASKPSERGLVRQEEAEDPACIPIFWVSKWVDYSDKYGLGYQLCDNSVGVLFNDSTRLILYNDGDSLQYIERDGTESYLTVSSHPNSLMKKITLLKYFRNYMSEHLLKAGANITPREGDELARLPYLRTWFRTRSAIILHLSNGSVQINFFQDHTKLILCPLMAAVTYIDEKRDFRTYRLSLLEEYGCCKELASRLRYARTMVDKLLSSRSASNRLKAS

SMILES	Activity: ratio of the luminescence value of each Exemplary Compound treatment group to DMSO treatment group [1]	IC50 [2] [nM]
COc1cc(C(=O)NN2CCC(N3CC4(CCN(c5ccc(C6CCC(=O)NC6=O)cc5F)CC4)C3)CC2)ccc1Nc1ncc2c(n1)N(C(C)C)CC(F)(F)C(=O)N2C (centres unmarked) [Compound 40, 4-((7,7-difluoro-9-isopropyl-5-methyl-6-oxo-6,7,8,9-tetrahydro-5H-pyrimido[4,5-b][1,4]diazepin-2-yl)amino)-N-(4-(7-(4-(2,6-dioxopiperidin-3-yl)-2-fluorophenyl)-2,7-diazaspiro[3.5]nonan-2-yl)piperidin-1-yl)-3-methoxybenzamide]	++ (++ <0.6)	< 30
COc1cc(C(=O)NC2CC3(CCN(CC4CCN(c5ccc(C6CCC(=O)NC6=O)cc5F)C(=O)C4)CC3)C2)ccc1Nc1ncc2c(n1)N(C(C)C)CC(F)(F)C(=O)N2C (centres unmarked) [Compound 28, 4-((7,7-difluoro-9-isopropyl-5-methyl-6-oxo-6,7,8,9-tetrahydro-5H-pyrimido[4,5-b][1,4]diazepin-2-yl)amino)-N-(7-((1-(4-(2,6-dioxopiperidin-3-yl)-2-fluorophenyl)-2-oxopiperidin-4-yl)methyl)-7-azaspiro[3.5]nonan-2-yl)-3-methoxybenzamide]	++ (++ <0.6)	< 30
COc1cc(C(=O)NCC2CC3(CCN(CC4CCN(c5ccc(C6CCC(=O)NC6=O)cc5F)CC4)CC3)C2)ccc1Nc1ncc2c(n1)N(C(C)C)CC(F)(F)C(=O)N2C (centres unmarked) [Compound 30, 4-((7,7-difluoro-9-isopropyl-5-methyl-6-oxo-6,7,8,9-tetrahydro-5H-pyrimido[4,5-b][1,4]diazepin-2-yl)amino)-N-((7-((1-(4-(2,6-dioxopiperidin-3-yl)-2-fluorophenyl)piperidin-4-yl)methyl)-7-azaspiro[3.5]nonan-2-yl)methyl)-3-methoxybenzamide]	+++ (+++: <0.3)	< 100
COc1cc(C(=O)NN2CCC(CN3CCN(C(=O)c4ccc(OC)c(N5CCC(=O)NC5=O)c4)CC3)CC2)ccc1Nc1ncc2c(n1)N(C(C)C)CC(F)(F)C(=O)N2C [Compound 51, 4-((7,7-difluoro-9-isopropyl-5-methyl-6-oxo-6,7,8,9-tetrahydro-5H-pyrimido[4,5-b][1,4]diazepin-2-yl)amino)-N-(4-((4-(3-(2,4-dioxotetrahydropyrimidin-1(2H)-yl)-4-methoxybenzoyl)piperazin-1-yl)methyl)piperidin-1-yl)-3-methoxybenzamide]	+ (+ <0.7)	–
COc1cc(C(=O)NC2CC3(CCN(CCC4(C)CCN(c5ccc(C6CCC(=O)NC6=O)cc5F)C4)CC3)C2)ccc1Nc1ncc2c(n1)N(C(C)C)CC(F)(F)C(=O)N2C (centres unmarked) [Compound 26, 4-((7,7-difluoro-9-isopropyl-5-methyl-6-oxo-6,7,8,9-tetrahydro-5H-pyrimido[4,5-b][1,4]diazepin-2-yl)amino)-N-(7-(2-(1-(4-(2,6-dioxopiperidin-3-yl)-2-fluorophenyl)-3-methylpyrrolidin-3-yl)ethyl)-7-azaspiro[3.5]nonan-2-yl)-3-methoxybenzamide]	++ (++ <0.6)	< 30
COc1cc(C(=O)NC2CCN(C3CCN(c4ccc(C5CCC(=O)NC5=O)cc4F)C3)CC2)ccc1Nc1ncc2c(n1)N(C(C)C)CC(F)(F)C(=O)N2C (centres unmarked) [Compound 59, 4-((7,7-difluoro-9-isopropyl-5-methyl-6-oxo-6,7,8,9-tetrahydro-5H-pyrimido[4,5-b][1,4]diazepin-2-yl)amino)-N-(1-(1-(4-(2,6-dioxopiperidin-3-yl)-2-fluorophenyl)pyrrolidin-3-yl)piperidin-4-yl)-3-methoxybenzamide]	++ (++ <0.6)	–
COc1cc(C(=O)NC2CC3(CCN(CC4CCN(c5ccc(C6CCC(=O)NC6=O)c(OC)c5)CC4)CC3)C2)ccc1Nc1ncc2c(n1)N(C(C)C)CC(F)(F)C(=O)N2C (centres unmarked) [Compound 37, 4-((7,7-difluoro-9-isopropyl-5-methyl-6-oxo-6,7,8,9-tetrahydro-5H-pyrimido[4,5-b][1,4]diazepin-2-yl)amino)-N-(7-((1-(4-(2,6-dioxopiperidin-3-yl)-3-methoxyphenyl)piperidin-4-yl)methyl)-7-azaspiro[3.5]nonan-2-yl)-3-methoxybenzamide]	++ (++ <0.6)	–
COc1cc(C(=O)NC2CCC(CCN3CCN(c4ccc(C5CCC(=O)NC5=O)cc4F)CC3)CC2)ccc1Nc1ncc2c(n1)N(C(C)C)CC(F)(F)C(=O)N2C (centres unmarked) [Compound 41, 4-((7,7-difluoro-9-isopropyl-5-methyl-6-oxo-6,7,8,9-tetrahydro-5H-pyrimido[4,5-b][1,4]diazepin-2-yl)amino)-N-((1s,4s)-4-(2-(4-(4-(2,6-dioxopiperidin-3-yl)-2-fluorophenyl)piperazin-1-yl)ethyl)cyclohexyl)-3-methoxybenzamide]	++ (++ <0.6)	–
COc1cc(C(=O)NC2CCC(N(C)CC3CCN(c4ccc(C5CCC(=O)NC5=O)cc4F)CC3)CC2)ccc1Nc1ncc2c(n1)N(C(C)C)CC(F)(F)C(=O)N2C (centres unmarked) [Compound 8, 4-((7,7-difluoro-9-isopropyl-5-methyl-6-oxo-6,7,8,9-tetrahydro-5H-pyrimido[4,5-b][1,4]diazepin-2-yl)amino)-N-((1s,4s)-4-(((1-(4-(2,6-dioxopiperidin-3-yl)-2-fluorophenyl)piperidin-4-yl)methyl)(methyl)amino)cyclohexyl)-3-methoxybenzamide]	++ (++ <0.6)	–
COc1cc(C(=O)NC2CC3(CCN(CC4CCN(c5ccc(C6CCC(=O)NC6=O)cc5F)CC4)CC3)C2)ccc1Nc1ncc2c(n1)N1CCC[C@@H]1CC(=O)N2C (stereo partly drawn) [Compound 24, N-(7-((1-(4-(2,6-dioxopiperidin-3-yl)-2-fluorophenyl)piperidin-4-yl)methyl)-7-azaspiro[3.5]nonan-2-yl)-3-methoxy-4-(((R)-5-methyl-6-oxo-6,7,7a,8,9,10-hexahydro-5H-pyrimido[5,4-b]pyrrolo[1,2-d][1,4]diazepin-2-yl)amino)benzamide]	++ (++ <0.6)	< 100
COc1cc(C(=O)NC2CC3(CCN(C[C@H]4C[C@@H]5C[C@H]4CN5c4ccc(C5CCC(=O)NC5=O)cc4F)CC3)C2)ccc1Nc1ncc2c(n1)N(C(C)C)CC(F)(F)C(=O)N2C (stereo partly drawn) [Compound 27, 4-((7,7-difluoro-9-isopropyl-5-methyl-6-oxo-6,7,8,9-tetrahydro-5H-pyrimido[4,5-b][1,4]diazepin-2-yl)amino)-N-(7-(((1R,4R,5S)-2-(4-(2,6-dioxopiperidin-3-yl)-2-fluorophenyl)-2-azabicyclo[2.2.1]heptan-5-yl)methyl)-7-azaspiro[3.5]nonan-2-yl)-3-methoxybenzamide]	++ (++ <0.6)	< 30
COc1cc(C(=O)NC2CC3(CCN(CCC4CCN(c5ccc(C6CCC(=O)NC6=O)cc5F)CC4)CC3)C2)ccc1Nc1ncc2c(n1)N(C(C)C)CC(F)(F)C(=O)N2C (centres unmarked) [Compound 29, 4-((7,7-difluoro-9-isopropyl-5-methyl-6-oxo-6,7,8,9-tetrahydro-5H-pyrimido[4,5-b][1,4]diazepin-2-yl)amino)-N-(7-(2-(1-(4-(2,6-dioxopiperidin-3-yl)-2-fluorophenyl)piperidin-4-yl)ethyl)-7-azaspiro[3.5]nonan-2-yl)-3-methoxybenzamide]	++ (++ <0.6)	< 30
COc1cc(C(=O)NC2CC3(CCN(CC4CCN(Cc5ccc(C6CCC(=O)NC6=O)cc5F)CC4)CC3)C2)ccc1Nc1ncc2c(n1)N(C(C)C)CC(F)(F)C(=O)N2C (centres unmarked) [Compound 34, 4-((7,7-difluoro-9-isopropyl-5-methyl-6-oxo-6,7,8,9-tetrahydro-5H-pyrimido[4,5-b][1,4]diazepin-2-yl)amino)-N-(7-((1-(4-(2,6-dioxopiperidin-3-yl)-2-fluorobenzyl)piperidin-4-yl)methyl)-7-azaspiro[3.5]nonan-2-yl)-3-methoxybenzamide]	++ (++ <0.6)	–

Reference: patent publication US11939334B2, “Substituted pyrimido[4,5-b][1,4]diazepines as PLK1 degradation inducers” (UPPTHERA, INC., priority 2021, dated 2024)
